Source: US5753623A, “Method of treatment for depression” (Connetics Corporation, priority 1995, dated 1998)

Assays:
[1] = system: patient with severe systemic scleroderma; test: Human antidepressant activity, missed doses and readministration (Example 4); format: in vivo
Method: A patient diagnosed as having severe systemic scleroderma with systemic sclerosis, was undergoing compassionate use therapy with relaxin. They were being treated with 1.5 mg per day of recombinant human relaxin (H2) in a buffered citrate solution adjusted to pH 5.0, divided into six equal doses by subcutaneous injection to achieve a circulating concentration of about 1.0 ng/ml.

Male Lewis mice = test: Mouse forced swimming wheel model; format: in vivo; settings: 50 μg/kg/day subcutaneous, two hours before the test, versus placebo control
Method: This is a modification of the forced swimming wheel test described by Kasahara, et al., Life Sci., 52(22):1741-1749 (1993).
Male Lewis mice are divided into control and treatment groups. Two hours before the test, the control and treatment groups, respectively, receive subcutaneous injections of placebo or 50 μg/kg/day of recombinant human relaxin (H2) formulated as described in allowed U.S. Ser. No. 08/050,745. The mice are individually placed in the swimming wheel and the number of turns of the wheel is recorded for each. Antidepressant activity is indicated by an increased number of turns in the treatment group.

[2] = system: patient with severe systemic scleroderma; test: Human antidepressant activity, dose ranging phase (Example 3); format: in vivo; settings: 0.5 mg bolus subcutaneous
Method: A patient diagnosed as having severe systemic scleroderma with systemic sclerosis, was undergoing compassionate use therapy with relaxin. In a dose ranging phase of the therapy, recombinant human relaxin (H2) in a buffered citrate solution adjusted to Ph 5.0 was administered as a bolus subcutaneous injection of 0.5 mg.

[3] = Serum concentrations of relaxin in the ongoing clinical trials; format: in vivo, human
Method: While human dosage levels for treating depression have yet to be optimized for relaxin, generally, a daily dose is from about […] of body weight per day, preferably about […] μg/kg, and most preferably about 12.0 to 100.0 μg/kg. Generally it is sought to obtain a serum concentration of relaxin approximating or greater than normal circulating levels in pregnancy, i.e., 1.0 ng/ml, such as 0.5 to 50 ng/ml, preferably 1.0 to 20 ng/ml. […] Thus, for administration to a 70 kg person, the dosage range would be about 7.0 μg to 3.5 mg per day, preferably about […] to 2.1 mg per day, and most preferably about […] per day. The amount of relaxin administered will, of course, be dependent on the subject and the severity of the affliction, the manner and schedule of administration and the judgment of the prescribing physician. One treatment regimen can employ a higher initial dosage level (e.g., 100 to 200 μg/kg/day) followed by decreasing dosages to achieve steady relaxin serum concentration of about 1.0 ng/ml. Another treatment regimen, particularly for postpartum depression, entails administration of an amount of relaxin sufficient to attain normal pregnancy levels of relaxin (about 1.0 ng/ml) followed by gradual decreasing dosages until relaxin serum levels are no longer detectable (e.g., less than about 20 pg/ml), optionally discontinuing treatment upon reaching that dosage level.

[4] = Serum relaxin concentrations after single subcutaneous administration to a scleroderma patient; format: in vivo, human; settings: 10 μg/kg single subcutaneous injection
Method: FIG. 1 is a graph showing serum relaxin concentration (ng/ml) as measured against time after administration of a single subcutaneous dose of 10 μg/kg to a scleroderma patient.
Relaxin (10 μg/kg) was administered as a single subcutaneous injection to a scleroderma patient. Blood samples were obtained at timed intervals and measured for serum relaxin concentration (ng/ml). Peak serum concentration was attained at about 2 hours post dosing.

patients = test: Relaxin treatment regimen with gradually decreased dosage (Example 5); format: in vivo, human; settings: about 6 μg/kg, then dosage gradually decreased to minimum dose or zero
Method: Relaxin is administered in patient-dependent doses (about 6 μg/kg) sufficient to maintain serum concentrations of at least about 1.0 ng/ml (approximating relaxin concentration during pregnancy).

scleroderma patients = test: Monitoring of overall wellbeing in Phase I clinical trials in scleroderma patients; format: in vivo, human
Source text: Recombinant human relaxin (H2) in currently in Phase I human clinical trials in scleroderma patients. Scleroderma is a disease involving an imbalance in tissue reformation giving rise to the overproduction of collagen, and ultimately resulting in swelling and hardening of the skin (and affected organs).
Relaxin is currently the subject of Phase I clinical trials involving scleroderma patients. Scleroderma is a disease involving an imbalance in tissue reformation giving rise to the overproduction of collagen, and ultimately resulting in swelling and hardening of the skin (and affected organs). Part of the clinical testing of relaxin in scleroderma patients included the monitoring of overall wellbeing.

[5] = system: female subjects after childbirth; test: Clinical trial for treatment of postpartum depression (Example 6); format: in vivo, human; settings: osmotic pump 50 μg/kg/day subcutaneous from three days after childbirth, three months, versus placebo
Method: One hundred pregnant female subjects are monitored for relaxin serum concentration during the course of their pregnancy. The subjects are randomized and divided into treatment and control groups. Three days after childbirth, in the treatment group, relaxin is administered by subcutaneous placement of a relaxin-containing osmotic pump delivering 50 μg/kg/day of recombinant human relaxin (H2); in the control group, placebo is administered by subcutaneous placement of a placebo-containing osmotic pump. The subjects are required to maintain a diary documenting their mood (e.g., joy/euphoria/depression/anxiety) over a period of three months following placement of the drug/placebo. The same is documented, along with relaxin serum concentration, by weekly visits to the treating physician.

For relaxin, the “mood after several missed doses” value ([1]; 1.5 mg per day in six subcutaneous doses, doses inadvertently missed) was “feelings similar to those they had previously experienced in the postpartum period”, the “clearing of the "blues" after readministration” value ([1]; 1.5 mg per day in six subcutaneous doses, readministration after missed doses) was “cleared within hours of readministration” and the “episodes of depression during uninterrupted treatment” value ([1]; following year, patient not withdrawn from treatment) was “no similar episodes of depression were experienced”. For the same substance, the “number of turns of the swimming wheel” value (Male Lewis mice) was “increased number of turns as compared to the control group”, the patient-reported mood symptoms ([2]; about seven hours post dosing) was “significant anxiety/depression-like symptoms” and the relaxin serum concentration ([2]; about seven hours post dosing, approximated) was “below 1 ng/ml”. The patient-reported wellbeing ([2]; about two hours post dosing (approximating peak serum concentration)) was “significant improvement in wellbeing”, the serum concentration ([3]; dosage of about 6.0 μg/kg, printed spread ±0.3) was “about 1.8 ng/ml” and the serum concentration ([3]; dosage of about 12.0 μg/kg, printed spread ±0.6) was roughly 3.6 ng/mL. For the same substance, the serum concentration ([3]; dosage of about 50 μg/kg, printed spread ±1.6) was roughly 11.8 ng/mL, the “time to peak serum concentration” value [4] was “about 2 hours” and the “depression associated with withdrawal” value (patients) was “do not experience depression associated with precipitous withdrawal”. The “effect of discontinuation of therapy on mood” value (scleroderma patients; discontinuation of therapy) was “malaise described as best comparable to postpartum depression”, the reversibility of malaise (scleroderma patients; resumption of treatment) was “reversible upon resumption of treatment” and the mood during treatment (scleroderma patients; treatment of scleroderma with relaxin) was “mood elevations corresponded to peak dosing periods”. For the same substance, the “signs of postpartum depression” value [5] was “fewer signs of postpartum depression than the subjects in the control group”.
